In ChEMBL document CHEMBL1137075, “General model for estimation of the inhibition of protein kinases using Monte Carlo simulations” (J Med Chem, 2004):

Experiments:
[1] = biological target: Tyrosine-protein kinase Lck (Homo sapiens, UniProt P06239)
Description: Evaluated for inhibition of human p56 Lck tyrosine kinase

[2] = biological target: Cyclin-dependent kinase 2 (Homo sapiens, UniProt P24941); experiment: Evaluated for inhibition of human cyclin dependent kinase 2 (CDK2)

Sequence of Tyrosine-protein kinase Lck (P06239 whole entry): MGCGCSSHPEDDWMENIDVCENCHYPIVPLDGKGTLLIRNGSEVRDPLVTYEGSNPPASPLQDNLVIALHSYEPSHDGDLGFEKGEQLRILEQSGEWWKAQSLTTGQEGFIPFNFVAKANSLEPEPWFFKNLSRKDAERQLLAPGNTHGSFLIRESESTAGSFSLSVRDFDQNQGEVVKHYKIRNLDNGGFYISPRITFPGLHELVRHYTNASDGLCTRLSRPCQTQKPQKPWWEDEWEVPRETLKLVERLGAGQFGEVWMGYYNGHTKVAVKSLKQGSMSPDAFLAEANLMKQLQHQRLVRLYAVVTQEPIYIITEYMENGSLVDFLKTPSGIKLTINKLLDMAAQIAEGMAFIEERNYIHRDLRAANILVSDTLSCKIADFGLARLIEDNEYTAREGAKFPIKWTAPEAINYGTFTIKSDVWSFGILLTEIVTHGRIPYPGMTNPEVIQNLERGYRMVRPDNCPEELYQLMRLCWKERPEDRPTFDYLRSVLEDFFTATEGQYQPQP

| Compound | IC50 [1] [nM] | IC50 [2] [nM] |
| --- | --- | --- |
| COc1cc2nc(Nc3c(C)cccc3Cl)c3cnc(C=O)n3c2cc1OC | 10 | – |
| c1cncc(-c2nc3ccccc3n3cncc23)c1 | 820 | – |
| COc1cc2nc(Nc3c(C)cccc3Cl)c3cnc(CO)n3c2cc1OC | 6.2 | – |
| Oc1[nH]c2ccccc2c1/N=N/c1ccccc1 | – | 46 |
| c1ccc2c(c1)nc(C1CC1)c1cncn12 | 3170 | – |

Now from value to compound:

| IC50 [1] [nM] | IC50 [2] [nM] | Compound |
| --- | --- | --- |
| – | 60 | COc1ccc2[nH]c(O)c(/N=N/c3ccccc3)c2c1 |
| 2680 | – | CCCc1nc2ccccc2n2cncc12 |
| – | 43 | Oc1[nH]c2ccc(Br)cc2c1/N=N/c1ccccc1 |
| 3170 | – | c1ccc2c(c1)nc(C1CCCCC1)c1cncn12 |
